The numbers were not newly measured in patent US20140113883A1, “Therapeutic micro nutrient composition for lipolysis and sclerosis” (priority 2008, published 2014), which cites them from elsewhere.

This data set has as its system red blood cells.

As for Lysolecithin, the hemolytic properties result was “strong hemolytic properties”.
